# Where a name gives a salt, the structure may show the parent alone.
# Assay: Evaluation of compatibility between tegoprazan and clopidogrel sulfate (2 weeks, HDPE bottle)
# Format: physicochemical
# Conditions: for content, component in mixture: mixture of tegoprazan and clopidogrel sulfate
# Experimental: Example 1. Evaluation of Compatibility Between Tegoprazan and Clopidogrel Sulfate
# According to Table 1 above, in order to examine the effect of each of tegoprazan and clopidogrel hydrogen sulfate, compatibility therebetween was evaluated under storage conditions according to the ICH guideline recommendations and drug safety test regulations.
# It was shown that, when the two components came into direct contact with each other under each storage condition, the contents of the two components decreased.
# [1] = 2 weeks, Accelerated conditions (40° C./RH 75 ± 5%)
# [2] = 2 weeks, Stressed conditions (60° C./RH 75 ± 5%)
"content, component alone [1] [%]","content, component alone [2] [%]","content, component alone (Initial (room temperature)) [%]","content, component in mixture [1] [%]","content, component in mixture [2] [%]","content, component in mixture (Initial (room temperature)) [%]",Structure (SMILES)
101.1,98.3,100.2,78.9,49.0,100.3,"COC(=O)[C@H](c1ccccc1Cl)N1CCc2sccc2C1 [Clopidogrel sulfate, methyl (+)-(S)-α-(2-chlorophenyl)-6,7-dihydrothieno[3,2-c]pyridine-5(4H)-acetate]"
100.3,99.1,99.8,92.0,10.5,99.7,"Cc1nc2cc(C(=O)N(C)C)cc(O[C@H]3CCOc4cc(F)cc(F)c43)c2[nH]1 [Tegoprazan, (S)-4-((5,7-difluorochroman-4-yl)oxy)-N,N,2-trimethyl-1H-benzo[d]imidazole-6-carboxamide]"

# Source: patent publication US20230087865A1, “PHARMACEUTICAL COMPOSITION FOR ORAL ADMINISTRATION” (HK INNO. N CORPORATION, priority 2020, published 2023)
